According to patent publication US20190308988A1, “OPIOID RECEPTOR ANTAGONIST PRODRUGS” (Nirsum Laboratories, Inc., priority 2017, published 2019):
In brackets after ≈: the same amount, converted by molar mass.

Legend:
[1] = Solubility determination in oil (Table 10); details: for solubility at 24 h: 25 °C, Obs. Temp. 25 °C; for solubility at 24 h / solubility / solubility thermodynamic: thermodynamic from solid; for solubility thermodynamic: water, Equilibrium solubility: Water
Description: A known amount of test substance (˜40 mg) was weighed into the vial, 100 μL of oil was added and heated to 60° C. and then system was slurried to reach equilibrium. […] Extra oil was added into the vial once compound precipitated out and then the system was re-equilibrated at 1000 rpm at room temperature (25° C.). Final concentration was determined by HPLC method as described below in Table 6a and 6b.

[2] = Polymorph screening of solid state drug substances (Table 23); format: physicochemical; details: stirred 50 °C 72 hours; for Dry method and appearance: dried solid
[3] = oil or lipid, Approximate Solubility in Excipient: Cottonseed oil, Heating Temp. 60 °C
[4] = oil or lipid, Approximate Solubility in Excipient: Sesame oil, Heating Temp. 60 °C
[5] = 40 °C, oil or lipid, Approximate Solubility in Excipient: Cottonseed oil, Heating Temp. 40 °C, Obs. Temp. 40 °C
[6] = 40 °C, oil or lipid, Approximate Solubility in Excipient: Sesame oil, Heating Temp. 40 °C, Obs. Temp. 40 °C
[7] = 40 °C, organic solvent or mixture, Approximate Solubility in Excipient: Ethanol, Heating Temp. 40 °C, Obs. Temp. 40 °C
[8] = 40 °C, Heating Temp. 40 °C, Obs. Temp. 40 °C
[9] = after slurry in Heptane, temperatures N/A
[10] = 40 °C, oil or lipid, Approximate Solubility in Excipient: Cottonseed oil, Heating Temp. 60 °C, Obs. Temp. 40 °C
[11] = 40 °C, oil or lipid, Approximate Solubility in Excipient: Sesame oil, Heating Temp. 60 °C, Obs. Temp. 40 °C
[12] = 40 °C, oil or lipid, Approximate Solubility in Excipient: Castor oil, Heating Temp. 40 °C, Obs. Temp. 40 °C

Compound	solubility at 24 h [1, 3] [mg/mL]	solubility at 24 h [1, 4] [mg/mL]	solubility [1, 5] [mg/mL]	solubility [1, 6] [mg/mL]	solubility [1, 7] [mg/mL]	solubility thermodynamic [1, 8] [mg/mL]	XRPD results (Dried) ([2]; Acetone)	Dry method and appearance ([2]; Acetone)	XRPD results (Dried) ([2]; EtOAc)	Dry method and appearance ([2]; EtOAc)	XRPD results (Dried) ([2]; Heptane)	Dry method and appearance ([2]; Heptane)	XRPD results (Dried) ([2]; Isopropanol)	Dry method and appearance ([2]; Isopropanol)	XRPD results (Dried) ([2]; MTBE)	Dry method and appearance ([2]; MTBE)	other results
CCCCCCCCCCCCOC(=O)Oc1ccc2c3c1O[C@H]1C(=O)CC[C@@]4(O)C(C2)N(CC2CC2)CC[C@]314 [Compound 11, (4aS,7aR,12bS)-3-(cyclopropylmethyl)-4a-hydroxy-7-oxo-2,3,4,4a,5,6,7,7a-octahydro-1H-4,12-methanobenzofuro[3,2-e]isoquinolin-9-yl dodecyl carbonate]	< 51	< 50	> 407	> 407	> 218	0.0005 (≈ 0.000903 mM)	Pattern A	Evaporation/white powder	Pattern A	Evaporation/white powder	Pattern B	Evaporation/white powder	Pattern A	Evaporation/white powder	Pattern A	Evaporation/white powder	solubility thermodynamic [1, 9]: 0.0026 mg/mL (≈ 0.0047 mM)
C=C1CC[C@@]2(O)C3Cc4ccc(OC(=O)CCCCCCCCCCCCCCCCCCCCC)c5c4[C@@]2(CCN3CC2CC2)[C@H]1O5 [Compound 14, (4aS,7aS,12bS)-3-(cyclopropylmethyl)-4a-hydroxy-7-methylene-2,3,4,4a,5,6,7,7a-octahydro-1H-4,12-methanobenzofuro[3,2-e]isoquinolin-9-yl docosanoate]	–	–	< 50	< 51	69 to 83 (≈ 104 to 125 mM)	0.01 (≈ 0.0151 mM)	Pattern A	Evaporation/white powder	Pattern A	Evaporation/white powder	Pattern B	Centrifugation/white powder	Pattern A	Evaporation/white powder	Pattern A	Evaporation/white powder	solubility [1, 10]: < 25 mg/mL; solubility [1, 11]: < 25 mg/mL; solubility thermodynamic ([1]; after slurry in EtOAc, temperatures N/A): < 0.0005 mg/mL; solubility thermodynamic [1, 9]: < 0.0005 mg/mL
C=C1CC[C@@]2(O)C3Cc4ccc(OC(=O)OCCCCCCCCCCCCCCCC)c5c4[C@@]2(CCN3CC2CC2)[C@H]1O5 [Compound 19, (4aS,7aS,12bS)-3-(cyclopropylmethyl)-4a-hydroxy-7-methylene-2,3,4,4a,5,6,7,7a-octahydro-1H-4,12-methanobenzofuro[3,2-e]isoquinolin-9-yl hexadecyl carbonate]	–	–	67 to 80 (≈ 110 to 132 mM)	103 to 137 (≈ 169 to 225 mM)	27 to 42 (≈ 44.4 to 69.1 mM)	0.0468 (≈ 0.077 mM)	Pattern A	Evaporation/white powder	Pattern A	Evaporation/white powder	Pattern A	Evaporation/white powder	Pattern A	Evaporation/white powder	Pattern A	Evaporation/white powder	–
C=C1CC[C@@]2(O)C3Cc4ccc(OC(=O)CC(C)(C)C)c5c4[C@@]2(CCN3CC2CC2)[C@H]1O5 [Compound 38, (4aS,7aS,12bS)-3-(cyclopropylmethyl)-4a-hydroxy-7-methylene-2,3,4,4a,5,6,7,7a-octahydro-1H-4,12-methanobenzofuro[3,2-e]isoquinolin-9-yl 3,3-dimethylbutanoate]	–	–	> 407	230 to 411 (≈ 526 to 939 mM)	160 to 200 (≈ 366 to 457 mM)	0.617 (≈ 1.41 mM)	–	–	–	–	–	–	–	–	–	–	solubility [1, 12]: > 248 mg/mL; solubility thermodynamic ([1]; 40 °C, Heating Temp. 60 °C, Obs. Temp. 40 °C): 0.21 mg/mL (≈ 0.48 mM)
C=C1CC[C@@]2(O)C3Cc4ccc(OC(=O)OCCCCCCCCCC)c5c4[C@@]2(CCN3CC2CC2)[C@H]1O5 [Compound 18, (4aS,7aS,12bS)-3-(cyclopropylmethyl)-4a-hydroxy-7-methylene-2,3,4,4a,5,6,7,7a-octahydro-1H-4,12-methanobenzofuro[3,2-e]isoquinolin-9-yl decyl carbonate]	> 400	> 402	> 403	> 403	> 209	< 0.0002	–	–	–	–	–	–	–	–	–	–	–
C=C1CC[C@@]2(O)C3Cc4ccc(OC(=O)CCCCCCC/C=C\CCCCCCCC)c5c4[C@@]2(CCN3CC2CC2)[C@H]1O5 [Compound 36, (4aS,7aS,12bS)-3-(cyclopropylmethyl)-4a-hydroxy-7-methylene-2,3,4,4a,5,6,7,7a-octahydro-1H-4,12-methanobenzofuro[3,2-e]isoquinolin-9-yl oleate]	> 407	> 408	> 419	> 412	20 to 30 (≈ 33.1 to 49.7 mM)	0.005 (≈ 0.00828 mM)	–	–	–	–	–	–	–	–	–	–	solubility [1, 12]: > 217 mg/mL
CCCCCCCCCCCCCC(=O)Oc1ccc2c3c1O[C@H]1C(=O)CC[C@@]4(O)C(C2)N(CC2CC2)CC[C@]314 [Compound 57, (4aS,7aR,12bS)-3-(cyclopropylmethyl)-4a-hydroxy-7-oxo-2,3,4,4a,5,6,7,7a-octahydro-1H-4,12-methanobenzofuro[3,2-e]isoquinolin-9-yl tetradecanoate]	> 424	> 417	–	–	–	< 0.001	–	–	–	–	–	–	–	–	–	–	–
CCCCCCCCCCCCCCCCOC(=O)OCOc1ccc2c3c1O[C@H]1C(=O)CC[C@@]4(O)C(C2)N(CC2CC2)CC[C@]314 [Compound 47, (((4aS,7aR,12bS)-3-(cyclopropylmethyl)-4a-hydroxy-7-oxo-2,3,4,4a,5,6,7,7a-octahydro-1H-4,12-methanobenzofuro[3,2-e]isoquinolin-9-yl)oxy)methyl hexadecyl carbonate]	> 406	> 405	–	–	–	< 0.001	–	–	–	–	–	–	–	–	–	–	–
O=C(CCC1CCCC1)Oc1ccc2c3c1O[C@H]1C(=O)CC[C@@]4(O)C(C2)N(CC2CC2)CC[C@]314 [Compound 43, (4aS,7aR,12bS)-3-(cyclopropylmethyl)-4a-hydroxy-7-oxo-2,3,4,4a,5,6,7,7a-octahydro-1H-4,12-methanobenzofuro[3,2-e]isoquinolin-9-yl 3-cyclopentylpropanoate]	–	–	< 50	< 50	> 257	0.05 (≈ 0.107 mM)	–	–	–	–	–	–	–	–	–	–	solubility [1, 10]: 140 to 210 mg/mL (≈ 301 to 451 mM); solubility [1, 11]: 133 to 199 mg/mL (≈ 286 to 427 mM); Equilibrium solubility: Water ([1]; Heating Temp. 40 °C, Obs. Temp. 40 °C): 0.048 mg/mL
CCCCCCCCCCCCCCCCCCCCCC(=O)Oc1ccc2c3c1O[C@H]1C(=O)CC[C@@]4(O)C(C2)N(CC2CC2)CC[C@]314 [Compound 51, (4aS,7aR,12bS)-3-(cyclopropylmethyl)-4a-hydroxy-7-oxo-2,3,4,4a,5,6,7,7a-octahydro-1H-4,12-methanobenzofuro[3,2-e]isoquinolin-9-yl docosanoate]	< 50	< 46	–	–	–	< 0.001	–	–	–	–	–	–	–	–	–	–	–
CCCCCCCCCCOC(=O)Oc1ccc2c3c1O[C@H]1C(=O)CC[C@@]4(O)C(C2)N(CC2CC2)CC[C@]314 [Compound 10, (4aS,7aR,12bS)-3-(cyclopropylmethyl)-4a-hydroxy-7-oxo-2,3,4,4a,5,6,7,7a-octahydro-1H-4,12-methanobenzofuro[3,2-e]isoquinolin-9-yl decyl carbonate]	–	–	–	–	–	–	Pattern A	Evaporation/White wax	Pattern A	Evaporation/White wax	Pattern A	Centrifugation/White wax	Pattern A	Evaporation/White wax	Pattern A	Evaporation/White wax	–
CCCCCCCCCCCCCCC(=O)Oc1ccc2c3c1O[C@H]1C(=O)CC[C@@]4(O)C(C2)N(CC2CC2)CC[C@]314 [Compound 58, (4aS,7aR,12bS)-3-(cyclopropylmethyl)-4a-hydroxy-7-oxo-2,3,4,4a,5,6,7,7a-octahydro-1H-4,12-methanobenzofuro[3,2-e]isoquinolin-9-yl pentadecanoate]	102 to 204 (≈ 180 to 360 mM)	99.4 to 199 (≈ 176 to 351 mM)	–	–	–	0.0014 (≈ 0.00247 mM)	–	–	–	–	–	–	–	–	–	–	–
